Test results as given in article PMC5066289, “Pharmacokinetics of anidulafungin during venovenous extracorporeal membrane oxygenation” (Critical Care, 2016).
“Also recorded” adds a separate entry of the source. Numbered stars: 1 amine (or outer) side, 2 acyl side, 3 side chain; on linkers, the order of the positions; unused ones are H or OH. Bridge positions count the residues as written; N and C are the ends. Square brackets hold non-standard residues; d marks the D form. Peptide text beside a SMILES is read from it. * marks the point of attachment. pTerphenylCO(4''-OnC5H11) = CCCCCOc1ccc(-c2ccc(-c3ccc(C(=O)*)cc3)cc2)cc1; Orn(4R-OH,5R-OH) = O=C([C@H](C[C@@H](O)[C@@H](O)N[*:3])N[*:1])[*:2]; hTyr(3S-OH,4S-OH) = N[C@H](C(=O)O)[C@H](O)[C@@H](O)c1ccc(O)cc1; Pro(3S-OH,4S-Me) = C[C@H]1CN[C@H](C(=O)O)[C@H]1O; Hyp = O=C(O)[C@@H]1C[C@@H](O)CN1

What was measured:
[1] = Tolerability of anidulafungin in the patient on ECMO; type: in vivo, human; conditions: single critically ill patient on venovenous ECMO; usual doses
Excerpt: (§1) A patient was admitted to the ICU with septic shock secondary to peritonitis. The anti-infective treatment was based on surgical source control and broad spectrum antimicrobial therapy, including anidulafungin at usual doses. The patient developed severe ARDS. ECMO with Novalung iLA Activve™ was initiated, maintaining ultraprotective ventilation. Femoral (23 F) and jugular (19 F) cannulas (Novalung™, Germany) were inserted with 4.5 L/min blood flow and 4 L/min gas flow. Urine samples and pre-filter and post-filter blood samples were collected before starting the eight-dose anidulafungin infusion and 0.5, 1, 1.5, 2, 4, 6, 8, and 24 h after the infusion ended.

[2] = Non-compartmental pharmacokinetics of anidulafungin in a critically ill patient on venovenous ECMO (plasma and urine, HPLC); type: in vivo, human
Excerpt: Echinocandins are currently considered the first-line treatment for invasive candidiasis (IC) in the intensive care unit (ICU). However, extracorporeal membrane oxygenation (ECMO), a rescue therapy used in patients with severe acute respiratory distress syndrome (ARDS), could alter the pharmacokinetics of certain drugs. We prescribed anidulafungin for suspected IC in a patient with severe ARDS on ECMO and measured the plasma concentrations of the drug using high-performance liquid chromatography (HPLC).
as §1
A non-compartmental pharmacokinetic analysis was performed using Abbottbase Pharmacokinetic Systems™ (Abbott Laboratories, Illinois, USA). The maximum and trough plasma concentrations (Cmax and Cmin, respectively) were estimated directly from concentration-time data. The area under the plasma concentration-time curve over the 24-h dosing interval (AUC0–24) was estimated using the linear trapezoidal rule for both pre-filter and post-filter data. Clearance (CL) was estimated as dose/AUC0–24. The apparent volume of distribution at steady state (Vss) was estimated as the product of CL and mean residence time (MRT).

CCCCCOc1ccc(-c2ccc(-c3ccc(C(=O)N[C@H]4C[C@@H](O)[C@@H](O)NC(=O)[C@@H]5[C@@H](O)[C@@H](C)CN5C(=O)[C@H]([C@@H](C)O)NC(=O)[C@H]([C@H](O)[C@@H](O)c5ccc(O)cc5)NC(=O)[C@@H]5C[C@@H](O)CN5C(=O)[C@H]([C@@H](C)O)NC4=O)cc3)cc2)cc1 [anidulafungin] ({pTerphenylCO(4''-OnC5H11)}-[Orn(4R-OH,5R-OH)]T[Hyp][hTyr(3S-OH,4S-OH)]T[Pro(3S-OH,4S-Me)]; lactam 1-C)
Tolerability / adverse effects [1]: well tolerated without relevant adverse effects
Clearance (CL) ([2]; single patient on venovenous ECMO, non-compartmental, dose/AUC0-24): 0.933 L/h
Apparent volume of distribution at steady state (Vss) ([2]; single patient on venovenous ECMO, non-compartmental, product of CL and MRT): 18.9 L
Urine anidulafungin concentrations ([2]; single patient on venovenous ECMO, urine samples over 24 h, HPLC, limit of detection 0.05 mg/L): negligible; also recorded: very low and close to the limit of detection
Trough plasma concentration (Cmin) ([2]; single patient on venovenous ECMO, usual doses, eighth dose, plasma, HPLC, estimated directly from concentration-time data): 2.19 µg/mL
Maximum plasma concentration (Cmax) ([2]; single patient with severe ARDS on venovenous ECMO, anidulafungin infusion at usual doses, sampled around the eighth dose, plasma, HPLC, estimated directly from concentration-time data): 13.5 µg/mL
